Reference: article PMC4099323, “Inhibition of Catalase by Tea Catechins in Free and Cellular State: A Biophysical Approach” (PLoS ONE, 2014)

Tests used:
[1] = target: T1, Catalase (from bovine liver) (Bos taurus, UniProt P00432); experiment: Inhibition of pure catalase activity (cell free), H2O2 decay at 240 nm; assay type: biochemical; settings: pure catalase, 50 µM each, 1 h incubation
T1 construct: Catalase (from bovine liver); purchased Sigma-Aldrich, St. Louis, MO, USA; host or cells: bovine liver
T1 sequence (P00432 2-527 limits assumed): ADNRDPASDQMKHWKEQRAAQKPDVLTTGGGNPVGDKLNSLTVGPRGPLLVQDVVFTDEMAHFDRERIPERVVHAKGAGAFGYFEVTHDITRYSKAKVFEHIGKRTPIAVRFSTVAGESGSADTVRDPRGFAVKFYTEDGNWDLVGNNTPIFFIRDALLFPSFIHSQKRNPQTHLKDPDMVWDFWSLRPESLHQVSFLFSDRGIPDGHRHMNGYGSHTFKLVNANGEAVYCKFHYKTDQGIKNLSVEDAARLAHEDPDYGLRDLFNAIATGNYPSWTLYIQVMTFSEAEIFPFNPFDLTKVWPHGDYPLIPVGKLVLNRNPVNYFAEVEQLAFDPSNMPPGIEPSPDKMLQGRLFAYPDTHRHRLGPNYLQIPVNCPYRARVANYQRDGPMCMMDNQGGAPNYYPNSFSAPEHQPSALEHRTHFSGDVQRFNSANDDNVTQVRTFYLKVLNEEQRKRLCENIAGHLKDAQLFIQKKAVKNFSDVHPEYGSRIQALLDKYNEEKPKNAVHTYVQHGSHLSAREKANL
Description: Absorption spectrophotometer (Varian, CARY 100 Bio, USA) was used to determine pure catalase activity (cell free). Briefly, 900 µl of H2O2 (0.036%) was taken in quartz cell of 1 cm path length and its absorbance was recorded at 240 nm. To the solution, 100 µl of catalase (50 U/ml) was added and the decrease in absorbance was recorded at 10 s interval. This experiment was performed in presence 50 µM each of four catechins and 3-AT separately to evaluate the inhibitory effect of catechins on catalase activity, after 1 h incubation.
On addition of catechins, a decrease in rate of H2O2 degradation i.e. a decrease in pure catalase activity was observed which is represented in Figure 6A. Catechins with galloyl moiety (ECG and EGCG) reduced catalase activity more than its non-gallated counterparts i.e. EGC and EC. However, Inhibition by EGCG is the closest to inhibition by known catalase inhibitor 3-AT.

[2] = target: T1, Catalase (from bovine liver); experiment: Circular dichroism: catechin-induced conformational change in catalase; settings: catalase 1 µM, ligands 3 µM each, 25°C
Description: All the CD experiments were carried out on a Jasco-815 automatic spectropolarimeter (Jasco International Co., Ltd. Hachioji, Japan) equipped with a peltier cuvette holder and temperature controller PFD425 L/15. The catalase concentration and path length of the cuvette used were 1 µM and 0.1 cm, respectively. The instrument parameters were set at scanning speed of 50 nm/min, bandwidth of 1.0 nm and sensitivity of 100 milli degree. The molar ellipticity values are expressed in terms of mean residue molar ellipticity, in units of deg. cm^2 dmol^−1.
CD allows investigation of the conformational changes that occur in a protein upon ligand binding. The CD spectra of catalase at pH 7.4 in the absence and in the presence of EGC, EC, ECG, EGCG, and 3-AT at 25°C are represented in Figure 5 (a – f). […] The negative band at 208 and 220 nm decreased in intensity with the addition of various catechins, which is indicative of the loss of α-helicity upon interaction. […] From the CD spectra, the effect of catechins on the secondary structure of catalase is in the following order: 3-AT>EGCG>ECG>EC>EGC.

[3] = target: T1, Catalase (from bovine liver); experiment: Fluorimetric titration: quenching of catalase fluorescence by catechins; assay type: binding; settings: double logarithmic plot, 25°C; for Kd: pH 7.4, λex 280 nm, read-out: binding constant K with catalase (fluorimetric) (converted)
Description: Fluorescence spectra were recorded using a Perkin Elmer fluorescence spectrophotometer (LS-55) equipped with 150 W Xenon flash lamp and using fluorescence-free quartz cell of 1 cm path length. The widths of excitation and emission slits were set to 5 nm, and scan speed (100 nm/min), excitation voltage were kept constant for each data set. Quantitative analysis of the potential interaction between catechins and catalase was performed by the fluorimetric titration technique. Briefly, solution of catalase (5×10^−7 M, as calculated using molar extinction coefficient of 3.24×10^5 M^−1 s^−1 at 405 nm for catalase) in 50 mM phosphate buffer of pH 7.4 was titrated in cuvette by successive additions of individual catechin solution aliquots from a stock of 5×10^−7 M. Fluorescence emission spectra were recorded in the wavelength range of 290–450 nm upon excitation at 280 nm when catalase samples were titrated with catechins. All experiments were carried out at room temperature. Fluorescence intensity was measured at 340 nm of protein emission spectra. Fluorescence spectra of individual catechins in buffer were recorded as blanks under the same experimental conditions and subtracted from the corresponding sample to correct the fluorescence background.
The binding constants and the number of binding sites involved were calculated according to the relation: log (F0–F)/F = log K+n log [Q], where K is the binding constant and n is the number of binding sites, F0 is the fluorescence intensity of free catalase, F is the consecutive fluorescence on addition of catechins, and [Q] is the concentration of the quencher (here catechins). A plot of log (F0– F)/F and log [Q] was used to determine the values of K and n from the intercept and the slope respectively (Figure 3 A–D).

[4] = target: T1, Catalase (from bovine liver); experiment: Isothermal titration calorimetry of catechins binding to catalase; settings: 25°C; for ΔG / ΔH / ΔS: ITC; for ΔG: calculated from the average values of ΔH; for ΔH / ΔS: directly extracted from the experiment; for Kd: one-site binding model, from ΔG = −RT ln K, read-out: binding constant with catalase (ITC) (converted)
Description: The energetics of the binding of catechins to catalase was studied by ITC using a MicroCal ITC200, (Northampton, MA, USA). All solutions were degassed under vacuum (140 mbar, 10 min) on the MicroCal’s Thermovac unit to eliminate air bubble formation inside the calorimeter cell. Briefly, the calorimeter syringe was filled with a concentrated solution of catechins (10 µM each). Successive injections of this solution into 1 µM solution of catalase in the calorimeter cell were effected from the rotating syringe with constant stirring of the solution. The titration and analysis were performed through Origin 7 software provided with the unit.
ITC directly measures the heat released during a chemical reaction. ITC can reveal the stoichiometry, enthalpy free energy, and entropy changes that occur over the course of a reaction, [46]. Data obtained from the titration are presented by the series of peaks corresponding to each injection. Usually, this representation is transformed into the apparent heat change between two injections as a function of the titrant ratio by means of integration of power differential with regard to time. ITC has been used mainly to quantify interactions in various biochemical systems [47]–[49]. ITC has been used in the present study to determine binding affinity and other thermodynamic parameters of catechins-catalase interaction. Representative isothermal calorimetric heat profiles for the binding of catechins-catalase interaction, at physiological pH and 25°C are shown in Figure 4 (A–D). The data were corrected for the heat of dilution of catechins, which was determined in a separate set of experiments under identical conditions. The titration and analysis were performed using one-site binding model through Origin 7 software provided with the unit. From Figure 4 it is observed that the titration of catalase with all the four catechins yield negative heat deflections. EC, EGC, ECG, and EGCG bind to catalase with binding constants 2.13×10^5, 1.92×10^5, 6.36×10^5, and 8.19×10^5 M^−1, respectively, as determined by the following equation: ΔG = −RT ln K, where ΔG is the free energy, R and T are the gas constant and temperature, respectively, K is the binding constant.

[5] = target: human dihydrofolate reductase (DHFR); set-up: method as in PMID 20054477; settings: fluorescence quenching; cited from earlier work
K562 cells = experiment: MTT cell viability assay; assay type: cell-based; settings: Homo sapiens
Description: Cell viability of K562 cells was quantified by MTT based colorimetric assay as described elsewhere. Briefly, cells were rinsed with PBS and 0.5 mg/ml MTT was added into each sample. The mixture was incubated at 37°C for an additional 3 h. At the end of incubation period, the medium containing MTT was removed and the pellet was dissolved in 200 µl DMSO. Absorbance was measured at a wavelength of 570 nm. Cell viability was expressed as a percentage of the control culture.
The concentration (IC50) at which the K562 cell survivability was reduced to 50% was calculated for EGCG and 3-AT by MTT based cell viability assay.

catalase = settings: cited from earlier work

With `O=C(OC1Cc2c(O)cc(O)cc2OC1c1ccc(O)c(O)c1)c1cc(O)c(O)c(O)c1` (single isomer, unassigned; (-)) [ECG, (−)-epicatechin gallate] the “order of inhibition of catalase activity” value [1] was 3-AT>EGCG>ECG>EC>EGC, the “order of effect on the secondary structure of catalase (loss of α-helicity)” value (“order of effect … (loss of α-helicity)” below) [2] was 3-AT>EGCG>ECG>EC>EGC and the “number of binding sites n” value [3] was “single binding site”. It also gave a Kd [3] of 0.602 µM, a ΔG [4] of -7.8 kcal/mol and a ΔH [4] of -756 ± 30.2 kcal/mol. The ΔS [4] was −2.60×10^3 cal/mol/K, the Kd [4] was 1.57 µM and the Kd [5] was 1.8 µM.
For `Oc1cc(O)c2c(c1)OC(c1cc(O)c(O)c(O)c1)C(O)C2` (single isomer, unassigned; (-)) [EGC, (−)-epigallocatechin], the “order of inhibition of catalase activity” value [1] was 3-AT>EGCG>ECG>EC>EGC, the “order of effect … (loss of α-helicity)” value [2] was 3-AT>EGCG>ECG>EC>EGC and the “number of binding sites n” value [3] was “single binding site”. For the same molecule, the Kd [3] was 12.7 µM, the ΔG [4] was -7.1 kcal/mol and the ΔH [4] was -3.2e+06 ± 106000 kcal/mol. For the same molecule, the ΔS [4] was −1.07×10^7 cal/mol/K, the Kd [4] was 5.21 µM and the “binding to DHFR” value [5] was “did not bind”.
In the case of `Nc1nc[nH]n1` [3-AT, 3-amino-1,2,4-triazole, reference compound], the “order of inhibition of catalase activity” value [1] is reported as 3-AT>EGCG>ECG>EC>EGC, the “order of effect … (loss of α-helicity)” value [2] is reported as 3-AT>EGCG>ECG>EC>EGC and the IC50 (K562 cells) is reported as 10.5 µM.
With `Oc1cc(O)c2c(c1)O[C@H](c1ccc(O)c(O)c1)[C@H](O)C2` [EC, (−)-epicatechin] the “order of inhibition of catalase activity” value [1] was 3-AT>EGCG>ECG>EC>EGC, the “order of effect … (loss of α-helicity)” value [2] was 3-AT>EGCG>ECG>EC>EGC and the “number of binding sites n” value [3] was “single binding site”. For the same molecule, the Kd [3] was 9.26 µM, the ΔG [4] was -7.17 kcal/mol and the ΔS [4] was −2.40×10^7 cal/mol/K. The Kd [4] was 4.69 µM and the “binding to DHFR” value [5] was “did not bind”.
For microcystin, the “binding constant of catalase-microcystin complex” value (catalase) is listed as 61200 M⁻¹.
